Results: ChEMBL document CHEMBL5532656, “Novel ligustilide derivatives target quorum sensing system LasR/LasB and relieve inflammatory response against Pseudomonas aeruginosa infection” (Eur J Med Chem, 2024)
Calls of active or inactive are those of the source. The calls are words filed in the database; no cut-off is given here.

Key:
[1] = Inhibition of quorum sensing system in Pseudomonas aeruginosa PAO1 assessed as reduction in elastase level using BODIPY-FL-labeled DQ elastin conjugate as substrate measured after 24 hrs by fluorometric method
[2] = system: RAW264.7; assay: Cytotoxicity against mouse RAW264.7 cells assessed as reduction in cell viability at <20 uM measured after 24 hrs by MTT assay; type: functional, cell-based
[3] = Cytotoxicity against African green monkey Vero cells assessed as reduction in cell viability at <20 uM measured after 24 hrs by MTT assay; type: toxicity, cell-based; details: chlorocebus sabaeus
[4] = system: RAW264.7; assay: Antiinflammatory activity in LPS-induced mouse RAW264.7 cells assessed as inhibition of IL-1 beta production pretreated for 3 hrs followed by LPS stimulation and measured after 24 hrs by ELISA method; type: functional, cell-based
[5] = system: RAW264.7; assay: Antiinflammatory activity in LPS-induced mouse RAW264.7 cells assessed as inhibition of IL-6 production pretreated for 3 hrs followed by LPS stimulation and measured after 24 hrs by ELISA method; type: functional, cell-based
[6] = system: RAW264.7; assay: Antiinflammatory activity in LPS-induced mouse RAW264.7 cells assessed as decrease in NLRP3 expression level pretreated for 3 hrs followed by LPS stimulation and measured after 24 hrs by Western blot analysis; type: functional, cell-based; details: dose 1.25-10 µmol/L, time 27.0 hrs
[7] = system: RAW264.7; assay: Antiinflammatory activity in mouse RAW264.7 cells assessed as reduction in IL-1 beta mRNA expression at 2.5 to 10 uM by RT-PCR analysis; type: functional, cell-based; details: dose 2.5-10 µM
[8] = system: RAW264.7; assay: Antiinflammatory activity in LPS-induced mouse RAW264.7 cells assessed as inhibition of IkappaB-alpha expression pretreated for 3 hrs followed by LPS stimulation and measured after 24 hrs by Western blot analysis; type: functional, cell-based; details: dose 1.25-10 µmol/L, time 27.0 hrs
[9] = system: RAW264.7; assay: Inhibition of LPS-induced ROS production in mouse RAW264.7 cells by DCFH-DA staining based fluorescence method; type: functional, cell-based
[10] = system: Mus musculus; assay: Anti-inflammatory activity against LPS-induced acute lung injury mouse model assessed as reduction in myeloperoxidase activity at 1 to 2 mg/kg, po preincubated for 4 hrs followed by LPS stimulation and measured after 6 hrs by spectrophotometer analysis; type: functional, organism-based; details: dose 1-2 mg/kg, time 10.0 hrs
[11] = system: Mus musculus; assay: Anti-inflammatory activity against LPS-induced acute lung injury mouse model assessed as downregulation of IL-1 beta level administered as po dose preincubated for 4 hrs followed by LPS stimulation and measured after 6 hrs by ELISA method; type: functional, organism-based; details: dose 1-2 mg/kg, time 10.0 hrs
[12] = system: Mus musculus; assay: Anti-inflammatory activity against LPS-induced acute lung injury mouse model assessed as reduction in IL-1 beta mRNA expression at 1 to 2 mg/kg, po preincubated for 4 hrs followed by LPS stimulation and measured after 6 hrs; type: functional, organism-based; details: dose 1-2 mg/kg, time 10.0 hrs
[13] = system: Mus musculus; assay: Protection against LPS-induced acute lung injury mouse model assessed as inhibition of neutrophil infiltration at 1 to 2 mg/kg, po preincubated for 4 hrs followed by LPS stimulation and measured after 6 hrs by H and E staining based analysis; type: functional, organism-based; details: dose 1-2 mg/kg, time 10.0 hrs
[14] = Toxicity in BALB/c mouse assessed as adverse effect at 2 to 4 mg/kg, IG; type: organism-based; details: in vivo, po, dose 2-4 mg/kg

- IC50 [1]: 7.3 µM
- inhibition ([1]; dose 0.625-10 µM): Dose-Dependent Effect
- IC50 [4]: 18.2 µM
- IC50 [5]: 2.61 µM
- IC50 [9]: 1.44 µM
Structure (SMILES): CCCCC1(O)C2=C(C=CCC2)C(=O)N1Cc1ccc(C(F)(F)F)cc1 (stereo not given)
- Activity [2]: inactive
- Activity [3]: Non-Toxic
- Activity [6]: Dose-Dependent Effect
- Activity [7]: Active
- Activity [8]: Dose-Dependent Effect
- Activity [10]: Active
- Activity [11]: Dose-Dependent Effect
- Activity [12]: Active
- Activity [13]: Active
- Activity [14]: Non-Toxic
